# Source: US20060228333A1, “Methods for control of tumors and chronic infections by modulating immunologically informed carriers homing to tolerogenic organs or tissues” (priority 2004, published 2006)
# Tested on: thymus (homing of Brown Norway rat PBMCs)
# Test: Thymic homing of injected donor PBMCs after drug treatment (homed cell counting in sliced thymus)
# Assay type: in vivo, Lewis rats
# Details: for Thymic homing (cell number): control 6580; for Thymic homing compared with control and other treated groups: doses as in Table 1; for Activation of the epithelial cells of the thymus: stated in discussion of Example 1
# Experimental: Inbred male Lewis rats (LW, RT1l) were injected intramuscularly with rapamycine (RAPA; 0.1 mg/kg/d), tacrolimus (TAC; 0.2 mg/kg/d), cyclosporine A (CsA; 10 mg/kg), PGE 1 (32 ug/kg or 10 ug/kg) or a control.
# One hour after the above treatments, 1.2-1.6×10^7 peripheral blood mononuclear cells (PBMCs) were obtained from Brown Norway rats (BN, RT1n). The cells were stained with IUBD and then injected intraperitoneally. 24 hours after cellular inoculation, the animals were sacrificed. A thymectomy was performed, the thymus was sliced and homed cell counting was performed. Homed cells may be counted by any method known to one of skill in the art. In this case, as the cells were stained before inoculation, the homed cells in the thymus were identified by the staining. The results of the cell counting are presented in Tables 1 and 2 for each treatment group: […]
# [1] = Lewis rats, i.m. RAPA 0.1 mg/kg/d, TAC 0.2 mg/kg/d, CsA 10 mg/kg, 1.2-1.6 × 10^7 BN PBMCs i.p. one hour later, thymus counted 24 hours after inoculation
Molecule,Thymic homing (cell number) [1],Thymic homing compared with control and other treated groups,Activation of the epithelial cells of the thymus,"Thymic homing (cell number) (PGE1 10 ug/kg i.m., 1.6 × 10^7 donor cells injected, 24 hours)","Thymic homing (cell number) (PGE1 32 ug/kg i.m., 1.6 × 10^7 donor cells injected, 24 hours)",Effect on epithelial cells and PBMCs (PGE1 high dose 32 ug/kg),Thymic homing compared with low dose and control (PGE1 high dose 32 ug/kg)
"C=CC[C@@H]1/C=C(\C)C[C@H](C)C[C@H](OC)[C@H]2O[C@@](O)(C(=O)C(=O)N3CCCC[C@H]3C(=O)O[C@H](/C(C)=C/[C@@H]3CC[C@@H](O)[C@H](OC)C3)[C@H](C)[C@@H](O)CC1=O)[C@H](C)C[C@@H]2OC [FK506, tacrolimus]",2360,inactivated PBMCs that homed to the thymus,do activate,,,,
CCCCC[C@H](O)/C=C/[C@H]1[C@H](O)CC(=O)[C@@H]1CCCCCCC(=O)O [PGE1],,,,8890,4680,inactivated the epithelial cells as well as the PBMCs,less thymic homing than low doses
"CO[C@H]1C[C@@H]2CC[C@@H](C)[C@@](O)(O2)C(=O)C(=O)N2CCCC[C@H]2C(=O)O[C@H]([C@H](C)C[C@@H]2CC[C@@H](O)[C@H](OC)C2)CC(=O)[C@H](C)/C=C(\C)[C@@H](O)[C@@H](OC)C(=O)[C@H](C)C[C@H](C)/C=C/C=C/C=C/1C [RAPA, rapamycine]",920,,,,,,
cyclosporine A [CsA],3365,inactivated PBMCs that homed to the thymus,do activate,,,,
